In paper PMC4472782, “Antibacterial Characterization of Novel Synthetic Thiazole Compounds against Methicillin-Resistant Staphylococcus pseudintermedius” (PLoS ONE, 2015):
In brackets after ≈: the same amount, converted by molar mass. Where a name gives a salt, the structure may show the parent alone. Read-outs that look alike come from different tables or passages of the source. Blank lines part the entries; values can stand above or below the compound they belong to.

Experiments:
[1] = Kinetic (turbidimetric) solubility in PBS; assay type: physicochemical; details: phosphate-buffered saline; highest concentration with no precipitate
Experimental: The absorbance of the PBS-containing plate was measured prior to addition of the test agents to determine the background absorbance. After 2 hours, the presence of precipitate was detected by turbidity (absorbance at 540 nm).

[2] = system: methicillin-sensitive Staphylococcus pseudintermedius; test: MIC by broth microdilution against MSSP clinical isolates; assay type: cell-based; details: nine MSSP isolates, triplicate
Experimental: (§1) Fifteen isolates of S. pseudintermedius (nine MSSP and six MRSP), identified at the Indiana Animal Disease Diagnostic Laboratory from specimens collected from dogs admitted to the small animal teaching hospital at Purdue University, were included in the study. The specimens were not collected specifically for this research study but were obtained from patients admitted to the hospital for treatment. Clinical specimens were inoculated onto 5% sheep blood agar and incubated at 35°C for 18–24 hours. Standard methods including examination of colony morphology and hemolysis and biochemical tests such as tube coagulase, Voges-Proskauer (VP) and fermentation tests for maltose, trehalose and lactose, were used in addition to matrix-assisted laser desorption ionization time of flight mass spectrometry to identify isolates. Antimicrobial susceptibility was determined by broth microdilution using the SensiTitre (Thermofisher Scientific).
(§2) Bacteria were prepared in phosphate-buffered saline (PBS) until a McFarland standard of 0.5 was achieved. The solution was subsequently diluted 1:300 in Mueller-Hinton broth (MHB) to reach a starting inoculum of 1 × 10^5 colony-forming units (CFU/mL). Bacteria were then transferred to a 96-well microtiter plate. Thiazole compounds and antibiotics were added (in triplicate) to wells in the first row of the microtiter plate and then serially diluted along the vertical axis. […] The MIC was categorized as the concentration where there was no visible growth of bacteria observed.

[3] = system: methicillin-resistant Staphylococcus pseudintermedius; test: MIC by broth microdilution against MRSP clinical isolates; assay type: cell-based; details: six MRSP isolates, triplicate
Experimental: as §1, §2

[4] = system: methicillin-sensitive Staphylococcus pseudintermedius; test: MBC determination against MSSP clinical isolates; assay type: cell-based; details: nine MSSP isolates
Experimental: (§3) The MBC was determined by plating 5 μL from wells on the 96-well microtiter plate (where the MIC was determined) where no growth was observed onto Tryptic soy agar (TSA) plates. […] The MBC was categorized as the concentration where ≥99% reduction in bacterial cell count was observed.

[5] = system: methicillin-resistant Staphylococcus pseudintermedius; test: MBC determination against MRSP clinical isolates; assay type: cell-based; details: six MRSP isolates
Experimental: as §3

[6] = system: MRSP SP3; test: Time-kill analysis against MRSP; assay type: cell-based, Staphylococcus pseudintermedius; details: 4 × MIC, MRSP SP3, 24 hour incubation at 37°C
Experimental: MRSP SP3 cells in late logarithmic growth phase were diluted to ~1 × 10^6 CFU/mL and exposed to concentrations equivalent to 4 × MIC (in triplicate) of thiazole compounds 1–6 and rifampicin in MHB. Samples (20 μL) were collected after 0, 2, 4, 6, 8, 10, 12, and 24 hours of incubation at 37°C and subsequently serially diluted in PBS. Bacteria were then transferred to TSA plates and incubated at 37°C for 20–24 hours before viable CFU/mL values were determined.

[7] = system: murine macrophage cell line (J774.A1); test: In vitro cytotoxicity analysis (MTS assay); assay type: cell-based; details: 10 μg/mL, J774.A1, two hours
Experimental: Compounds were assayed at concentrations of 5 μg/mL, 10 μg/mL, 20 μg/mL, and 40 μg/mL against a murine macrophage cell line (J774.A1) (ATCC TIB-67, American Type Culture Collection (ATCC), Manassas, VA, USA) to determine the potential toxic effect in vitro. Cells were cultured in Dulbeco’s modified Eagle’s medium (Sigma-Aldrich, St. Louis, MO, USA) with 10% fetal bovine serum (USA Scientific, Inc.) at 37°C with 5% CO2. Controls received DMSO alone at a concentration equal to that in drug-treated cell samples. The cells were incubated with the compounds in a 96-well plate at 37°C and 5.0% CO2 for two hours prior to addition of the assay reagent MTS 3-(4,5-dimethylthiazol-2-yl)-5-(3-carboxymethoxyphenyl)-2-(4-sulfophenyl)-2H-tetrazolium) (Promega, Madison, WI, USA). Absorbance readings were taken using a kinetic ELISA microplate reader (Molecular Devices, Sunnyvale, CA, USA). The quantity of viable cells after treatment with each compound was expressed as a percentage of the control, DMSO.
All statistical analyses were performed with GraphPad Prism 6.0 (GraphPad Software, La Jolla, CA). Data generated from cytotoxicity analysis of the thiazole compounds against J774.A1 cells and the 260 and 280 nm cell leakage analysis were analyzed using one-way ANOVA, with post hoc Tukey's multiple comparisons test (P < 0.05).

[8] = system: MRSP SP3; test: Checkerboard assay of thiazole compounds with oxacillin; assay type: cell-based, Staphylococcus pseudintermedius
Experimental: The relationship between the thiazole compounds and oxacillin was assessed via a standard checkerboard assay. Bacteria (MRSP SP3) equivalent to a McFarland standard of 0.5 were prepared in PBS. The bacteria were next diluted in MHB to achieve a starting cell density of 1 × 10^5 CFU/mL. MHB was transferred to all wells of a 96-well microtiter plate. […] Oxacillin was serially diluted along the abscissa of the microtiter plate while the thiazole compound was serially diluted along the ordinate. The plate was incubated for 22–24 hours at 37°C. The MIC of the test compound in combination with oxacillin was determined as the lowest concentration of each compound/antibiotic where no visible growth of bacteria was observed. The fractional inhibitory concentration index (ƩFIC) was calculated for each combination as described previously. A synergistic relationship was classified as an FIC index less than or equal to 0.5. […]

[9] = system: MRSP SP3; test: Post-antibiotic effect against MRSP; assay type: cell-based, Staphylococcus pseudintermedius; details: 4 × MIC for one hour
Experimental: A tube containing untreated bacterial cells served as a control. Afterward, the compound/antibiotic was washed out by diluting bacteria 1:1000 in MHB. Counts of CFU for all cultures were obtained after washing. Aliquots (100 μL) of bacteria were removed every hour (for 10 hours), serially diluted in PBS, and plated on TSA plates. TSA plates were incubated for 20 hours at 37°C before CFU values were determined.

[10] = design: method as in PMID 24387054; details: phosphate-buffered saline; cited from earlier work
[11] = human liver microsomes; cited from earlier work
[12] = system: MRSP SP3; test: Re-sensitization of MRSP to oxacillin, broth microdilution; assay type: cell-based; details: Staphylococcus pseudintermedius, clinical isolate identified as MRSP, read-out: MIC of oxacillin alone
Experimental: MHB was inoculated with MRSP SP3 (5×10^5 CFU/mL), as has been previously described. Aliquots (5 mL) of the bacterial suspension were divided into microcentrifuge tubes. The thiazole compounds tested (at ½ × MIC) were introduced into each tube. After sitting at room temperature for 30 minutes, 1 mL samples from each tube were transferred to a new centrifuge tube prior to addition of oxacillin (at a concentration equivalent to its MIC). Using a 96-well microtiter plate, rows 2–12 were filled with the remaining 4 mL bacterial suspension (containing the thiazole compound). Aliquots (200 μL) from tubes containing both the thiazole compound and oxacillin were transferred to row 1 of the 96-well plate. After aspirating contents in the first row 4–6 times, 100 μL was transferred from wells in row 1 to row 2. This process was repeated to dilute the remaining wells containing no antibiotic. Untreated bacteria served as a control. […] A fold reduction was calculated by comparing the MIC of the antibiotic alone compared to the MIC of the antibiotic given in combination with the thiazole compounds.

Compound: COC(=O)[C@H]1[C@H]2C[C@@H]3c4[nH]c5cc(OC)ccc5c4CCN3C[C@H]2C[C@@H](OC(=O)c2cc(OC)c(OC)c(OC)c2)[C@@H]1OC [Reserpine, reference compound]
solubility limit [1]: 19.05 µg/mL (≈ 31.3 µM)

MIC50 ([2]; lowest concentration inhibiting growth in 50% of isolates): 0.35 µg/mL (≈ 1.06 µM)
MIC ([2]; read-out: MIC Range): 0.17 to 1.38 µg/mL (≈ 0.516 to 4.19 µM)
MIC50 ([3]; Staphylococcus pseudintermedius, read-out: MIC50): 0.69 µg/mL (≈ 2.09 µM)
MIC Range [3]: 0.35 to 1.38 µg/mL
Compound: CCCCc1ccc(-c2nc(C)c(/C(C)=N/NC(=N)N)s2)cc1 [Compound 1]
MBC ([4]; Staphylococcus pseudintermedius, lowest concentration that killed 50% of isolates, read-out: MBC50): 0.46 µg/mL (≈ 1.4 µM)
MBC Range [4]: 0.17 to 2.77 µg/mL
MBC ([5]; Staphylococcus pseudintermedius, read-out: MBC50): 0.92 µg/mL (≈ 2.79 µM)
MBC Range [5]: 0.35 to 1.38 µg/mL
time required to completely eliminate MRSP [6]: four hours
toxicity to murine macrophage cells (MTS assay) [7]: toxic
relationship with oxacillin ([8]; checkerboard assay): synergistic
ƩFIC ([8]; combination with oxacillin, ≤ 0.5 synergistic, > 0.5 to ≤ 4.0 indifference, > 4 antagonistic): 0.19
Post-antibiotic Effect [9]: >9 h
solubility limit [10]: 20.56 µg/mL (≈ 62.4 µM)
half-life [11]: under 30 minutes

Compound: Cc1onc(-c2ccccc2)c1C(=O)N[C@@H]1C(=O)N2[C@@H]1SC(C)(C)[C@@H]2C(=O)O [oxacillin, oxacillin sodium salt monohydrate]
MIC [12]: 128 µg/mL
